Measured values taken from patent US9579335B2, “Treatment of cystic diseases” (Indiana University Research and Technology Corporation, priority 2010, dated 2017).

Test system: mpkCCDcl4 cells
Assay: Ussing-chamber short-circuit current (SCC) measurement of net transepithelial ion transport
Assay type: cell-based, mouse
Settings: for effect of pretreatment on cyst fluid stimulated ion transport (SCC): inhibitor/effector added before 10% cyst fluid on serosal side; for ion transport (SCC) response to addition of the substance itself: added to the bathing media of monolayers, no prior stimulus
Method: mpkCCDcl4 cell culture. mpkCCDcl4 cells were developed as a line expressing the characteristics of the principal cell type of the distal nephron and cortical collecting duct. mpkCCDcl4 cells were grown in a humidified chamber at 37° C. and 5% CO2. The cell line was maintained in plastic culture flasks for propagation. For electrophysiological measurements, the cells were seeded onto Transwell filters at ¼ confluent density. The media was replaced thrice weekly and consisted of Dulbecco's modified Eagle's medium (DMEM): Ham's F12 basal media supplemented with 2% fetal bovine serum, 1 mM Glutamax, 25 U/mL penicillin, […] streptomycin, 12 mg/L ciprofloxacin, 5 mg/L transferrin, 20 μg/L sodium selenite, and 10^−7 M triiodothyronine.
Electrophysiology. Ussing-style electrophysiological measurements were used to measure net transepithelial transport as well as to monitor the transepithelial resistance as described previously. Briefly, transwell permeable membranes containing confluent (>10 days post seeding) monolayers of mpkCCDcl4 cells were excised from the plastic supports, mounted in modified Ussing chambers, and connected to a DVC-1000 Voltage/Current Clamp (World Precision Instruments) with voltage and current electrodes on either side of the membrane. The cells were bathed in serum-free medium maintained at 37° C. via water-jacketed buffer chambers on either side of the filter. Medium was circulated and kept at constant pH using a 5% CO2/95% O2 gas lift. The spontaneous transepithelial potential difference was measured and then clamped to zero. The resulting short-circuit current (SCC) is a measure of net transepithelial ion transport. During the entire experiment, non-zero voltage pulses are induced every 200 seconds and the current displacement during the pulse is used to calculate the transepithelial resistance via Ohm's law. Cultures with resistances lower than 1000 Ω·cm^2 measured within the first 10 minutes of placement in the chambers were discarded. The basal level of transport was monitored for 20-40 minutes before the start of an experiment. The time of addition of the stimulatory effector is defined as zero time.
Unless otherwise stated, each experiment was repeated 3-4 times. Because of variability in the magnitude of the stimulatory responses to cyst fluid from various patients, only one representative experiment is depicted.
The functional effects of cyst fluid were measured as changes in net transepithelial ion transport across high resistance epithelia formed by the mpkCCDcl4 cell line. […] For electrophysiological measurements, confluent cell monolayers grown on permeable supports are mounted in Ussing chambers with access to both the basolateral and apical surfaces. The spontaneous transepithelial potential difference is measured and clamped to zero. In high resistance epithelia, the resulting short-circuit current (SCC) is a measure of net transepithelial transport. By convention, a positive change is defined as anion moving in a secretory direction (serosal to luminal bathing media) or a cation moving in an absorptive direction (luminal to serosal bathing media). Likewise, a decrease in SCC can be defined as anions or cations moving in the opposite direction from that described above. The nature and direction of the ion flux is characterized by effectors and inhibitors.

Compound	effect of pretreatment on cyst fluid stimulated ion transport (SCC)	ion transport (SCC) response to addition of the substance itself	other results
[Ba+2] [Ba^2+]			effect on stimulated Cl- secretion (pretreatment on the apical face): without effect; inhibition of stimulated Cl- secretion (pretreatment on the serosal side): about 50%
CCCCCCCCCCCCOP(=O)(O)O [DDP, dodecylphosphate]	no effect		
CCCCCCCC(=O)OC[C@H](COP(=O)(O)OP(=O)(O)O)OC(=O)CCCCCCC [DGPP, diacylglycerol pyrophosphate]	substantially inhibited		concentrations with adverse effect on integrity of the cellular monolayer (decrease in transepithelial resistance): above 20 μM; average inhibition of the Cl- secretory peak stimulated in response to 10% cyst fluid (pretreatment with 20 μM DGPP, five experiments): 72.8+4.49%
O=C(CNc1ccc2ccccc2c1)N/N=C/c1cc(Br)c(O)c(Br)c1O [GlyH-101]	Neither inhibitor alone completely blocked the response	causes a stimulatory response when added	
COc1ccc2c(c1)c(CC(=O)O)c(C)n2C(=O)c1ccc(Cl)cc1 [Indomethacin, indomethacin]	did not alter		
CCCCCCCCCCCCC/C=C/[C@@H](O)[C@@H](N)COP(=O)(O)O [S-1-P, sphingosine-1-phosphate]		consistently minimal compared to those elicited by LPA	
N=C(N)NC(=O)c1nc(Cl)c(N)nc1N [amiloride]		immediate decrease in the basal current	effect of pre-treatment on subsequent response to forskolin (amiloride 10^-5 M apical, 10 minutes before forskolin): completely eliminated a subsequent response to forskolin; effect on forskolin-stimulated ion transport, added after forskolin (amiloride 10^-5 M apical, 30 minutes after forskolin): completed inhibited; effect on ion transport remaining 30 minutes after cyst fluid addition (amiloride added to apical bathing media): decreased the remaining ion transport to zero
O=C(OC[C@H]1O[C@@H](OC(=O)c2cc(O)c(O)c(OC(=O)c3cc(O)c(O)c(O)c3)c2)[C@H](OC(=O)c2cc(O)c(O)c(OC(=O)c3cc(O)c(O)c(O)c3)c2)[C@@H](OC(=O)c2cc(O)c(O)c(OC(=O)c3cc(O)c(O)c(O)c3)c2)[C@@H]1OC(=O)c1cc(O)c(O)c(OC(=O)c2cc(O)c(O)c(O)c2)c1)c1cc(O)c(O)c(OC(=O)c2cc(O)c(O)c(O)c2)c1 [tannic acid]	Neither inhibitor alone completely blocked the response		
N-palmitoyl-L-serine phosphoric acid [L-NASPA]	appears to inhibit a subsequent response to cyst fluid	immediate response that mimics the response to LPA or 10% cyst fluid	
lysophosphatic acid [LPA]		identical to the response to renal cyst fluid	
